In PubChem BioAssay (NCI):
“And” between values parts separate entries of the source, which are not always exact repeats. Equal values may be shown once.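 Dose response: 5 concentrations. Exposure: 48 h. Format: 96-well plates. Endpoint: linear interpolation; highest concentration if not reached. Definition used: TGI = concentration required for complete inhibition of growth.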

Experiments:
Experiment in all cases: growth of human tumour cells (NCI), 48 h
[1] = tested on: CAKI-1 renal
[2] = tested on: SF-295 CNS
[3] = tested on: HOP-62 NSCLC
[4] = tested on: SK-MEL-28 melanoma
[5] = tested on: HCT-116 colon
[6] = tested on: XF 498 CNS
[7] = tested on: SK-OV-3 ovarian
[8] = tested on: HOP-92 NSCLC
[9] = tested on: M19-MEL melanoma
[10] = tested on: LOX IMVI melanoma
[11] = tested on: OVCAR-3 ovarian
[12] = tested on: RXF 393 renal
[13] = tested on: SW-620 colon
[14] = tested on: TK-10 renal
[15] = tested on: NCI-H460 lung
[16] = tested on: UO-31 renal
[17] = tested on: SNB-75 CNS
[18] = tested on: UACC-62 melanoma
[19] = tested on: MOLT-4 leukemia
[20] = tested on: LXFL 529 NSCLC
[21] = tested on: HOP-18 NSCLC
[22] = tested on: DMS 114 small cell lung
[23] = tested on: HCC-2998 colon
[24] = tested on: SF-539 CNS
[25] = tested on: OVCAR-5 ovarian
[26] = tested on: 786-0 renal
[27] = tested on: SR leukemia
[28] = tested on: SNB-19 CNS
[29] = tested on: KM20L2 colon
[30] = tested on: SNB-78 CNS
[31] = tested on: IGROV1 ovarian
[32] = tested on: K-562 leukemia
[33] = tested on: NCI-H522 lung
[34] = tested on: NCI-H23 lung
[35] = tested on: MALME-3M melanoma
[36] = tested on: KM12 colon
[37] = tested on: HT29 colon
[38] = tested on: U251 CNS
[39] = tested on: HCT-15 colon
[40] = tested on: OVCAR-8 ovarian
[41] = tested on: COLO 205 colon
[42] = tested on: RXF-631 renal
[43] = tested on: SN12C renal
[44] = tested on: SF-268 CNS
[45] = tested on: SK-MEL-5 melanoma
[46] = tested on: NCI-H226 lung
[47] = tested on: A498 renal
[48] = tested on: EKVX NSCLC
[49] = tested on: RPMI-8226 leukemia
[50] = tested on: ACHN renal
[51] = tested on: DMS 273 small cell lung
[52] = tested on: M14 melanoma
[53] = tested on: DLD-1 colon
[54] = tested on: HL-60(TB) leukemia
[55] = tested on: UACC-257 melanoma
[56] = tested on: A549 NSCLC
[57] = tested on: OVCAR-4 ovarian
[58] = tested on: SK-MEL-2 melanoma
[59] = tested on: CCRF-CEM leukemia

**Q.** How did the TGI [1] turn out when `O=S(=O)(O)SC/C=C\CSS(=O)(=O)O` was run?
**A.** > 100 µM

**Q.** And the TGI [2]?
**A.** > 100 µM

**Q.** What about the TGI [3] of the same compound?
**A.** > 100 µM

**Q.** And the TGI [4]?
**A.** > 100 µM

**Q.** And the TGI [5]?
**A.** > 100 µM

**Q.** What about the TGI [6] of the same compound?
**A.** > 100 µM

**Q.** And the TGI [7]?
**A.** > 100 µM

**Q.** And the TGI [8]?
**A.** > 100 µM

**Q.** And the TGI [9]?
**A.** > 100 µM

**Q.** What about the TGI [10] of the same compound?
**A.** > 100 µM

**Q.** What about the TGI [11] of the same compound?
**A.** > 100 µM

**Q.** What about the TGI [12] of the same compound?
**A.** > 100 µM

**Q.** And the TGI [13]?
**A.** > 100 µM

**Q.** What about the TGI [14] of the same compound?
**A.** > 100 µM

**Q.** And the TGI [15]?
**A.** > 100 µM

**Q.** What about the TGI [16] of the same compound?
**A.** > 100 µM

**Q.** What about the TGI [17] of the same compound?
**A.** > 100 µM

**Q.** And the TGI [18]?
**A.** > 100 µM

**Q.** What about the TGI [19] of the same compound?
**A.** > 100 µM

**Q.** What about the TGI [20] of the same compound?
**A.** > 100 µM

**Q.** And the TGI [21]?
**A.** > 100 µM

**Q.** What about the TGI [22] of the same compound?
**A.** > 100 µM

**Q.** And the TGI [23]?
**A.** > 100 µM

**Q.** What about the TGI [24] of the same compound?
**A.** > 100 µM

**Q.** What about the TGI [25] of the same compound?
**A.** > 100 µM

**Q.** What about the TGI [26] of the same compound?
**A.** > 100 µM

**Q.** What about the TGI [27] of the same compound?
**A.** > 100 µM

**Q.** And the TGI [28]?
**A.** > 100 µM

**Q.** And the TGI [29]?
**A.** > 100 µM

**Q.** What about the TGI [30] of the same compound?
**A.** > 100 µM

**Q.** And the TGI [31]?
**A.** > 100 µM

**Q.** What about the TGI [32] of the same compound?
**A.** > 100 µM

**Q.** What about the TGI [33] of the same compound?
**A.** > 100 µM

**Q.** And the TGI [34]?
**A.** > 100 µM

**Q.** And the TGI [35]?
**A.** > 100 µM

**Q.** And the TGI [36]?
**A.** > 100 µM and 61.2 µM

**Q.** And the TGI [37]?
**A.** > 100 µM

**Q.** What about the TGI [38] of the same compound?
**A.** > 100 µM

**Q.** What about the TGI [39] of the same compound?
**A.** > 100 µM

**Q.** What about the TGI [40] of the same compound?
**A.** > 100 µM

**Q.** And the TGI [41]?
**A.** > 100 µM

**Q.** What about the TGI [42] of the same compound?
**A.** > 100 µM

**Q.** What about the TGI [43] of the same compound?
**A.** > 100 µM

**Q.** And the TGI [44]?
**A.** > 100 µM

**Q.** And the TGI [45]?
**A.** > 100 µM

**Q.** And the TGI [46]?
**A.** > 100 µM

**Q.** And the TGI [47]?
**A.** > 100 µM

**Q.** What about the TGI [48] of the same compound?
**A.** > 100 µM

**Q.** What about the TGI [49] of the same compound?
**A.** > 100 µM

**Q.** What about the TGI [50] of the same compound?
**A.** > 100 µM

**Q.** What about the TGI [51] of the same compound?
**A.** > 100 µM

**Q.** And the TGI [52]?
**A.** > 100 µM

**Q.** What about the TGI [53] of the same compound?
**A.** > 100 µM

**Q.** What about the TGI [54] of the same compound?
**A.** > 100 µM

**Q.** What about the TGI [55] of the same compound?
**A.** > 100 µM

**Q.** And the TGI [56]?
**A.** > 100 µM

**Q.** What about the TGI [57] of the same compound?
**A.** > 100 µM

**Q.** `Nc1ccc2c(c1)C(=O)N(OS(=O)(=O)c1ccccc1)C2=O` was tested. Which TGI [1] did it give?
**A.** > 100 µM

**Q.** And the TGI [2]?
**A.** > 100 µM

**Q.** What about the TGI [3] of the same compound?
**A.** > 100 µM

**Q.** What about the TGI [4] of the same compound?
**A.** > 100 µM

**Q.** And the TGI [5]?
**A.** > 100 µM

**Q.** And the TGI [6]?
**A.** > 100 µM

**Q.** And the TGI [7]?
**A.** > 100 µM

**Q.** What about the TGI [8] of the same compound?
**A.** > 100 µM

**Q.** And the TGI [9]?
**A.** > 100 µM

**Q.** What about the TGI [10] of the same compound?
**A.** > 100 µM

**Q.** What about the TGI [11] of the same compound?
**A.** > 100 µM

**Q.** What about the TGI [58] of the same compound?
**A.** > 100 µM

**Q.** What about the TGI [12] of the same compound?
**A.** > 100 µM

**Q.** And the TGI [13]?
**A.** > 100 µM

**Q.** What about the TGI [14] of the same compound?
**A.** > 100 µM

**Q.** What about the TGI [15] of the same compound?
**A.** > 100 µM

**Q.** What about the TGI [16] of the same compound?
**A.** > 100 µM

**Q.** What about the TGI [17] of the same compound?
**A.** > 100 µM

**Q.** And the TGI [18]?
**A.** > 100 µM

**Q.** And the TGI [20]?
**A.** > 100 µM

**Q.** And the TGI [21]?
**A.** > 100 µM

**Q.** And the TGI [22]?
**A.** > 100 µM

**Q.** What about the TGI [23] of the same compound?
**A.** > 100 µM

**Q.** What about the TGI [59] of the same compound?
**A.** > 100 µM

**Q.** What about the TGI [24] of the same compound?
**A.** > 100 µM

**Q.** And the TGI [25]?
**A.** > 100 µM

**Q.** And the TGI [26]?
**A.** > 100 µM

**Q.** And the TGI [28]?
**A.** > 100 µM

**Q.** And the TGI [29]?
**A.** > 100 µM

**Q.** What about the TGI [30] of the same compound?
**A.** > 100 µM

**Q.** What about the TGI [31] of the same compound?
**A.** > 100 µM

**Q.** And the TGI [32]?
**A.** > 100 µM

**Q.** And the TGI [33]?
**A.** 60.7 µM

**Q.** And the TGI [34]?
**A.** > 100 µM

**Q.** What about the TGI [35] of the same compound?
**A.** > 100 µM

**Q.** What about the TGI [36] of the same compound?
**A.** > 100 µM

**Q.** And the TGI [37]?
**A.** > 100 µM

**Q.** What about the TGI [38] of the same compound?
**A.** > 100 µM

**Q.** And the TGI [39]?
**A.** > 100 µM

**Q.** And the TGI [40]?
**A.** > 100 µM

**Q.** What about the TGI [41] of the same compound?
**A.** > 100 µM

**Q.** And the TGI [42]?
**A.** > 100 µM

**Q.** And the TGI [43]?
**A.** > 100 µM

**Q.** And the TGI [44]?
**A.** > 100 µM

**Q.** What about the TGI [45] of the same compound?
**A.** > 100 µM

**Q.** What about the TGI [46] of the same compound?
**A.** > 100 µM

**Q.** And the TGI [47]?
**A.** > 100 µM

**Q.** What about the TGI [48] of the same compound?
**A.** > 100 µM

**Q.** What about the TGI [50] of the same compound?
**A.** > 100 µM

**Q.** And the TGI [51]?
**A.** > 100 µM

**Q.** And the TGI [52]?
**A.** > 100 µM

**Q.** What about the TGI [53] of the same compound?
**A.** > 100 µM

**Q.** And the TGI [54]?
**A.** > 100 µM

**Q.** And the TGI [55]?
**A.** > 100 µM

**Q.** And the TGI [56]?
**A.** > 100 µM

**Q.** And the TGI [57]?
**A.** > 100 µM
